| SMILES | melting point |
| --- | --- |
| O=C(NO)[C@@H](CCCN1C(=O)c2ccccc2C1=O)NS(=O)(=O)c1ccc(-c2ccc(Cl)cc2)cc1 [Example 2, (2R)-(4′-Chiorobiphenyl4-sulfonylamino)-5-(1,3-dioxo-1,3-dihydroisoindol-2-yl)pentanoic Acid Hydroxyamide] | 204 to 206 °C (dec.) |
| Cn1c(=O)n(CCC[C@@H](NS(=O)(=O)c2ccc(-c3ccccc3)cc2)C(=O)O)c(=O)c2ccccc21 [Example 5, (2R)-(4-Biphenylsulfonylamino)-5-(1,2,3,4-tetrahydro-1-methyl-2,4-dioxoquinazolin-3-yl)pentanoic Acid] | 222 to 224 °C |
| CC1(C)NC(=O)N(CCCCC(NS(=O)(=O)c2ccc(-c3ccc(Cl)cc3)cc2)C(=O)O)C1=O [Example 32, (2R,S)-(4′-Chlorobiphenyl-4-sulfonylamino)-6-(4,4-dimethyl-2,5-dioxoimidazolidin-1-yl)-hexanoic Acid] | 78 to 80 °C |
| O=C(O)[C@@H](CCCN1C(=O)c2ccccc2S1(=O)=O)NS(=O)(=O)c1ccc(-c2ccc(Cl)cc2)cc1 [Example 3, (2R)-(4′-Chlorobiphenyl-4-sulfonylamino)-5-(1,1,3-trioxo-2,3-dihydrobenzoisothiazol-2-yl)pentanoic Acid] | 177 to 179 °C |
| O=C(NO)[C@@H](CC(=O)N1CCOCC1)NS(=O)(=O)c1ccc(Oc2ccccc2)cc1 [Example 44, (2R)-(4-Phenyloxybenzenesulfonylamino)-4-morpholin-4-yl-4-oxobutyric Acid Hydroxyamide] | 161 to 163 °C |
| O=C(O)[C@@H](CCN1C(=O)[C@@H]2Cc3ccccc3CN2C1=O)NS(=O)(=O)c1ccc(-c2ccc(Cl)cc2)cc1 [Example 36, (2R)-(4′-Chlorobiphenyl-4-sulfonylamino)-4-[(1,3-dioxo-1,5,10, (10aS)-tetrahydroimidazo-[1,5-b]isoquinolin-2-yl)]butyric Acid] | 70 °C |
| CN1C(=O)N(CC[C@@H](NS(=O)(=O)c2ccc(-c3ccc(Cl)cc3)cc2)C(=O)O)C(=O)C1(C)C [Example 35, (2R)-(4′-Chlorobiphenyl-4-sulfonylamino)-4-(3,4,4-trimethyl-2,5-dioxoimidazolidin-1-yl)-butyric Acid] | 43 °C |
| Cc1ccc(S(=O)(=O)NCCC[C@@H](NS(=O)(=O)c2ccc(-c3ccc(Cl)cc3)cc2)C(=O)O)cc1 [Example 7, (2R)-(4′-Chlorobiphenyl-4-sulfonylamino)-5-(4-methylbenzenesulfonylamino)pentanoic Acid] | 62 °C |
| CN1C(=O)N(CC[C@@H](NS(=O)(=O)c2ccc(-c3ccc(Cl)cc3)cc2)C(=O)NO)C(=O)C1(C)C [Example 38, (2R)-(4′-Chlorobiphenyl-4-sulfonylamino)-4-(3,4,4-trimethyl-2,5-dioxoimidazolidin-1-yl)-butyric Acid Hydroxyamide] | 117 to 120 °C |
| O=C(NO)[C@@H](CC(=O)N1CCOCC1)NS(=O)(=O)c1ccc(-c2ccc(Cl)cc2)cc1 [Example 45, (2R)-(4′-Chlorobiphenyl-4-sulfonylamino)-4-morpholin-4-yI-4-oxobutyric Acid Hydroxyamide] | 139 to 141 °C |
| Cn1c(=O)n(CC(NS(=O)(=O)c2ccc(-c3ccc(Cl)cc3)cc2)C(=O)O)c(=O)c2ccccc21 [Example 40, (2R,S)-(4′-Chlorobiphenyl-4-sulfonylamino)-3-(1,2,3,4-tetrahydro-1-methyl-2,4-dioxoquinazolin-3-yl)propanoic Acid] | 218 °C (dec.) |
| Cn1c(=O)n(CCC[C@@H](NS(=O)(=O)c2ccc(-c3ccc(Cl)cc3)cc2)C(=O)NO)c(=O)c2ccccc21 [Example 19, (2R)-(4′-Chlorobiphenyl-4-sulfonylamino)-5-(1,2,3,4-tetrahydro-1-methyl-2,4-dioxoquinazolin-3-yl)pentanoic Acid Hydroxyamide] | 235 °C |
| O=C(O)[C@@H](CCCN1C(=O)c2ccccc2C1=O)NS(=O)(=O)c1ccc(-c2ccc(Cl)cc2)cc1 [Example 1, (2R)-(4′-Chlorobiphenyl-4-sulfonylamino)-5-(1,3-dioxo-1,3-dihydroisoindol-2-yl)pentanoic Acid] | 179 to 181 °C |
| O=C(O)[C@@H](CC(=O)N1CCOCC1)NS(=O)(=O)c1ccc(Oc2ccccc2)cc1 [Example 42, (2R)-(4-Phenyloxybenzenesulfonylamino)-4-morpholin-4-yl-4-oxobutyric Acid] | 147 to 149 °C |
| CN1C(=O)N(CC(NS(=O)(=O)c2ccc(-c3ccc(Cl)cc3)cc2)C(=O)O)C(=O)C1(C)C [Example 39, (2R,S)-(4′-Chlorobiphenyl-4-sulfonylamino)-3-(3,4,4-trimethyl-1,2,5-dioxoimidazolidin-1-yl)propanoic Acid] | 198 to 201 °C |
| O=C(NO)[C@@H](CCCN1C(=O)c2ccccc2S1(=O)=O)NS(=O)(=O)c1ccc(-c2ccc(Cl)cc2)cc1 [Example 18, (2R)-(4′-Chlorobiphenyl-4-sulfonylamino)-5-(1,1,3-trioxo-2,3-dihydrobenzoisothiazol-2-yl)pentanoic Acid Hydroxyamide] | 200 to 205 °C (dec.) |
| Cn1c(=O)n(CCCCC(NS(=O)(=O)c2ccc(-c3ccc(Cl)cc3)cc2)C(=O)O)c(=O)c2ccccc21 [Example 31, (2R,S)-(4′-Chlorobiphenyl-4-sulfonylamino)-6-(1,2,3,4-tetrahydro-1-methyl-2,4-dioxoquinazolin-3-yl)hexanoic Acid] | 208 to 210 °C |
| O=C(O)[C@@H](CC(=O)N1CCOCC1)NS(=O)(=O)c1ccc(-c2ccc(Cl)cc2)cc1 [Example 43, (2R)-(4′-Chlorobiphenyl-4-sulfonylamino)-4-morpholin-4-yl-4-oxobutyric Acid] | 144 to 146 °C |
| Cn1c(=O)n(CCC[C@@H](NS(=O)(=O)c2ccc(-c3ccc(Cl)cc3)cc2)C(=O)O)c(=O)c2ccccc21 [Example 4, (2R)-(4′-Chlorobiphenyl-4-sulfonylamino)-5-(1,2,3,4-tetrahydro-1-methyl-2,4-dioxoquinazolin-3-yl)pentanoic Acid] | 188 to 191 °C |
| Cn1c(=O)n(CCC[C@@H](NS(=O)(=O)c2ccc(-c3ccccc3)cc2)C(=O)NO)c(=O)c2ccccc21 [Example 20, (2R)-(4-Biphenylsulfonylamino)-5-(1,2,3,4-tetrahydro-1-methyl-2,4-dioxoquinazolin-3-yl)pentanoic Acid Hydroxyamide] | 202 to 203 °C |

— patent US6410580B1, “Sulfonylamino derivatives which inhibit matrix-degrading metalloproteinases” (Novartis AG, priority 2000, dated 2002)
